Experimental data as given in patent US9446019B2, “Sparstolonin B based pharmaceutical agent for neuroblastoma treatment” (University of South Carolina, priority 2013, dated 2016).

Key:
[1] = ROS-generating activity in cell-free system (H2DCFDA, HRP); assay type: biochemical; details: for increase of OD value vs H2DCFDA+HRP reaction: SsnB 10 μM + H2DCFDA 25 μM + HRP 5 units/ml
Method: FIG. 2D and FIG. 2E illustrate the ROS generating capacity of SsnB evaluated in a cell-free system containing H2DCFDA (25 μM), horseradish peroxidase (HRP, 5 units/ml), SsnB (10 μM) and glutathione (GSH, 0.25 or 2.5 μM) alone or in various combinations. Optical density (O.D.) at 540 nm were taken at different time points and plotted.
In a reaction system, after the removal of acetate group by cellular esterases and oxidation by reactive oxygen species, the non-fluorescent carboxy-H2DCFDA dye is oxidized to fluorescent molecule carboxy-DCF. To measure the ROS-generating activity of SsnB, the oxidation of carboxy-H2DCFDA dye was monitored in a cell-free system containing carboxy-H2DCFDA dye, horseradish peroxidase (HRP) and SsnB at 540 nm. HRP was used to supply esterase since without esterase carboxy-H2DCFDA is not sensitive to oxidant. […] After addition of HRP (5 units/ml) in the reaction mixture containing SsnB (10 μM)+H2DCFDA dye (25 μM), the OD value increased by 2% in the first 240 sec and further increased by 8% after 15 min compared to H2DCFDA+HRP reaction, indicating the increased oxidation of H2DCFDA to the fluorescent compound.

[2] = test system: p53 in SH-SY5Y cells; test: p53 expression by Western blotting; assay type: cell-based, human; details: SsnB 10 μM
Method: After treatment with SsnB, cells were collected, washed with 1×PBS, and lysed with 1× cell lysis buffer (Cell Signaling Technology, Danvers, Mass.) containing phenylmethylsulfonyl fluoride (PMSF) and protease inhibitors (aprotinin and leupeptin) for 30 min on ice, and centrifuged at 12000×rpm for 10 min at 4° C. Supernatant (total cell protein) was collected and stored at −80° C. Protein concentration was determined by bicinchoninic acid method using BCA protein assay kit (Pierce/ThermoScientific, Waltham, Mass.). Equal amount of proteins were diluted with 5× Laemmli samples loading buffer and boiled for five minutes. The proteins were subjected to sodium dodecyl sulfate (SDS)-polyacrylamide gel electrophoresis and analyzed by Western blots. Briefly, after electrophoresis, proteins were transferred on polyvinylidene difluoride (PVDF) membrane at 100 volt for 3 h in cold room. […] Signals were detected by chemiluminiscence detection kit (Pierce/Thermo Fisher Scientific, Rockford, Ill.). […]
At cellular level, mitochondria- or receptor (Fas/FasL)-mediated pathways activate caspase signaling cascade which in turn induces DNA damage and initiates programmed cell death (apoptosis). […] The number of cleaved caspase-3 positive cells were quantitated by ImageJ programme and plotted. […]

[3] = test system: SK-N-BE(2) and SH-SY5Y cells; test: Two layer soft agarose colony formation assay; assay type: cell-based, human; details: SsnB 10 μM, 45 days
Method: A two layer soft agarose assay system was used in these studies. Approximately 1×10^4 cells were suspended in 0.35% agarose in DMEM with 10% FBS, and were gently laid on the bottom agarose layer containing 0.8% agarose with DMEM+10% FBS in 35 mm^2 cell culture dishes. Once solidified, the dishes were incubated at 37° C. in a humidified chamber with 5% CO2. Next day, 500 μl of complete cell culture medium with respective concentrations of SsnB was added, and cells were allowed to grow for 45 days in an incubator chamber. Fresh medium with respective concentrations of SsnB was added to the dishes in every 5 days. Cells treated with equal volume of DMSO were used as control. At the end of experiments, cells were stained with 0.1% crystal violet and cell colonies (more than 15 cells per colony) were counted under the light microscope.
The anti-proliferative activity of SsnB to affects the tumor progression property of neuroblastoma cells was tested by performing two layer agarose gel colony formation assays. Agarose gel colony formation assay is an anchorage-independent in vitro cell transformation assay, and mimics the process of in vivo carcinogenesis. Neuroblastoma cells (N-myc amplified cell, SK-N-BE(2), and N-myc nonamplified cell, SH-SY5Y) were grown in agarose in presence or absence of SsnB (1 μM and 10 μM) and after 45 days the number of colonies was counted.

O=c1occ2c3c(ccc(O)c13)Oc1ccc(O)cc1-2 [SsnB, 8,5′-dihydroxy-4-phenyl-5,2′-oxidoisocoumarin]
increase of OD value vs H2DCFDA+HRP reaction ([1]; after 15 min): 8%
increase of OD value vs H2DCFDA+HRP reaction ([1]; first 240 sec): 2%
optical density at 540 nm ([1]; SsnB 10 μM + H2DCFDA 25 μM, without HRP): remained constant
p53 expression vs DMSO [2]: Increased expression of p53
size of colonies ([3]; vs control and SsnB 1 μM): significantly smaller
colony formation capability (number of colonies) ([3]; p<0.05 vs control): significantly inhibited the colony formation capability
